Laboratory results as given in patent publication US20250382344A1, “Soluble GLP1/GIP/NPY2 Receptor Triple Agonists” (Boehringer Ingelheim International GmH, priority 2024, published 2025).
Read-outs that look alike come from different tables or passages of the source.

Assays:
[1] = target: T1, hGIPR (Homo sapiens, UniProt P48546); assay: hGIPR CreLuc assay in 0.5% and 100% plasma (CHO CRE-luciferase reporter cells); format: cell-based
T1 construct: expressed in transfected cells; host or cells: CHO CRE-luciferase reporter cells
T1 sequence (P48546 22-466): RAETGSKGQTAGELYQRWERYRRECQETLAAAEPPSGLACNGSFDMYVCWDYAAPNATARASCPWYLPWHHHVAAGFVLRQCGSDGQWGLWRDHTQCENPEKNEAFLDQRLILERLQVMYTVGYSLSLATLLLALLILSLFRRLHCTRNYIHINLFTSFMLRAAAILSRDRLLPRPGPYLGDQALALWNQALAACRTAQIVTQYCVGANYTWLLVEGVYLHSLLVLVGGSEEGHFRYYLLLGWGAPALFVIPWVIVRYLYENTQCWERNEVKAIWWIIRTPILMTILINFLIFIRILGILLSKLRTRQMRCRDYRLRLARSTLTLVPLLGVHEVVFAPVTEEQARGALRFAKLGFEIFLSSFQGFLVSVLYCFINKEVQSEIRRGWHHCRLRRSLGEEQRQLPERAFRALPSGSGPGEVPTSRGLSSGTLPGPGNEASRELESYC

[2] = Solubility in 0.1 M phosphate buffer at pH 7; format: physicochemical; conditions: 0.1 M phosphate buffer at pH 7, 10 mg/mL final peptide concentration, shaking 2 hours at room temperature, peptides as TFA-salts; measured sample pH 6.5-7.0
[3] = target: T2, hNPY2R (Homo sapiens, UniProt P49146); assay: hNPY2R CreLuc assay in 0.5% and 100% plasma (HEK-293 CRE-luciferase reporter cells); format: cell-based; conditions: HEK-293 reporter cells
T2 construct: expressed in transfected cells; host or cells: HEK-293 CRE-luciferase reporter cells
T2 sequence (P49146 1-381): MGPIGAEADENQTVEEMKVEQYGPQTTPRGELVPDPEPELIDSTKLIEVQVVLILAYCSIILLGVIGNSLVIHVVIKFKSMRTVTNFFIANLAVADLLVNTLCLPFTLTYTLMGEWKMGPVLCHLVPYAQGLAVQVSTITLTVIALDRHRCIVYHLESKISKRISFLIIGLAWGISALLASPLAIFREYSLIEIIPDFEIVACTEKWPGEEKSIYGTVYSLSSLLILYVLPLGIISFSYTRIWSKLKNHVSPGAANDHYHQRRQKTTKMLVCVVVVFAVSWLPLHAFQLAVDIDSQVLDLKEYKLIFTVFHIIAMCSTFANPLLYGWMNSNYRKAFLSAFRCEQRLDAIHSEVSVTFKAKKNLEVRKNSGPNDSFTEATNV

[4] = target: T3, hGLP1R (Homo sapiens, UniProt P43220); assay: hGLP1R CreLuc assay in 0.5% and 100% plasma (HEK-293 CRE-luciferase reporter cells); format: cell-based; conditions: HEK-293 reporter cells
T3 construct: expressed in transfected cells; host or cells: HEK-293 CRE-luciferase reporter cells

[5] = 0.5% human plasma, read-out: hGIPR 0.5% hP
[6] = 0.5% human plasma, read-out: hNPY2R 0.5% hP
[7] = 0.5% human plasma, read-out: hGLP1R 0.5% hP
[8] = 100% human plasma, read-out: hGLP1R 100% hP
[9] = 100% human plasma, read-out: hNPY2R 100% hP

T3 sequence (P43220 24-463): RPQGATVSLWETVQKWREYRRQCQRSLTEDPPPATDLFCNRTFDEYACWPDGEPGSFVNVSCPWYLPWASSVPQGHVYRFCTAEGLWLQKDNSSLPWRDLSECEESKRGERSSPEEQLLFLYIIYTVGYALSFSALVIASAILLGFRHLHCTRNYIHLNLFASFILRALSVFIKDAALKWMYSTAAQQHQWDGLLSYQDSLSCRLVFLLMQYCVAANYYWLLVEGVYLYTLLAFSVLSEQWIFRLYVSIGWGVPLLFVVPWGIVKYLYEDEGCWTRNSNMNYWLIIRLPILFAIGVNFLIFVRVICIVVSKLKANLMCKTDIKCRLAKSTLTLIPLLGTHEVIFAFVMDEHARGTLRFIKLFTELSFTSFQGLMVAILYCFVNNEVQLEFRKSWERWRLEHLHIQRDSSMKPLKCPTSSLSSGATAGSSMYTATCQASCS

## CC[C@H](C)[C@H](NC(=O)[C@H](CC(C)C)NC(=O)[C@H](Cc1c[nH]cn1)NC(=O)[C@H](CCCNC(=N)N)NC(=O)[C@@H](NC(=O)[C@H](Cc1ccccc1)NC(=O)[C@H](C)NC(=O)C(C)(C)NC(=O)[C@H](CCC(N)=O)NC(=O)[C@H](C)NC(=O)[C@H](CCC(N)=O)NC(=O)[C@H](CCCCN)NC(=O)[C@H](CC(=O)O)NC(=O)[C@H](CC(C)C)NC(=O)C(C)(C)NC(=O)[C@@H](NC(=O)[C@H](CO)NC(=O)[C@H](Cc1ccc(O)cc1)NC(=O)[C@H](CC(=O)O)NC(=O)[C@H](CO)NC(=O)[C@@H](NC(=O)[C@H](Cc1ccccc1)NC(=O)[C@@H](NC(=O)CNC(=O)[C@H](CCC(=O)O)NC(=O)C(C)(C)NC(=O)[C@@H](N)Cc1ccc(O)cc1)[C@@H](C)O)[C@@H](C)O)[C@@H](C)CC)C(C)C)C(=O)N[C@@H](CC(N)=O)C(=O)N[C@@H](CCCCNC(=O)[C@@H](N)CCCCNC(=O)CC[C@H](NC(=O)CC[C@H](NC(=O)CC[C@H](NC(=O)CC[C@H](NC(=O)CC[C@H](NC(=O)CC[C@H](NC(=O)CCCCCCCCCCCCCCCCC(=O)O)C(=O)O)C(=O)O)C(=O)O)C(=O)O)C(=O)O)C(=O)O)C(=O)NC(C)(C)C(=O)N[C@H](C(=O)N[C@@H](CCCNC(=N)N)C(=O)N[C@@H](CCC(N)=O)C(=O)N[C@@H](CCCNC(=N)N)C(=O)N[C@@H](Cc1ccc(O)cc1)C(N)=O)[C@@H](C)O [Compound 105, Y-Aib-E-G-T-F-T-S-D-Y-S-I-Aib-L-D-K-Q-A-Q-Aib-A-F-V-R-H-L-I-N-K(1,3)-Aib-T-R-Q-R-Y-NH2.C18DA-gGlu-gGlu-gGlu-gGlu-gGlu-gGlu-eLys(1,2)]
[1]; [5]
  EC50: 0.4 nM
[2]
  solubility at 2 h: 8000 µg/mL
[3]; [6]
  EC50: 19.9 nM
[4]; [7]
  EC50: 0.3 nM
[4]; [8]
  EC50: 3.4 nM

## CC[C@H](C)[C@H](NC(=O)[C@H](CO)NC(=O)[C@H](Cc1ccc(O)cc1)NC(=O)[C@H](CC(=O)O)NC(=O)[C@H](CO)NC(=O)[C@@H](NC(=O)[C@H](Cc1ccccc1)NC(=O)[C@@H](NC(=O)CNC(=O)[C@H](CCC(=O)O)NC(=O)C(C)(C)NC(=O)[C@@H](N)Cc1ccc(O)cc1)[C@@H](C)O)[C@@H](C)O)C(=O)N[C@@H](CC(C)C)C(=O)N[C@@H](CC(C)C)C(=O)N[C@@H](CCC(=O)O)C(=O)N[C@@H](CCCCN)C(=O)N[C@@H](CCC(N)=O)C(=O)N[C@@H](C)C(=O)N[C@@H](CCC(N)=O)C(=O)NC(C)(C)C(=O)N[C@@H](C)C(=O)N[C@@H](Cc1ccccc1)C(=O)N[C@H](C(=O)N[C@@H](CCCNC(=N)N)C(=O)N[C@@H](Cc1c[nH]cn1)C(=O)N[C@@H](CC(C)C)C(=O)N[C@H](C(=O)N[C@@H](CC(N)=O)C(=O)N[C@@H](CCCCNC(=O)CC[C@H](NC(=O)CC[C@H](NC(=O)CC[C@H](NC(=O)CC[C@H](NC(=O)CC[C@H](NC(=O)CCCCCCCCCCCCCCCCC(=O)O)C(=O)O)C(=O)O)C(=O)O)C(=O)O)C(=O)O)C(=O)NC(C)(C)C(=O)N[C@H](C(=O)N[C@@H](CCCNC(=N)N)C(=O)N[C@@H](CCC(N)=O)C(=O)N[C@@H](CCCNC(=N)N)C(=O)N[C@@H](Cc1ccc(O)cc1)C(N)=O)[C@@H](C)O)[C@@H](C)CC)C(C)C [Compound 122, Y-Aib-E-G-T-F-T-S-D-Y-S-I-L-L-E-K-Q-A-Q-Aib-A-F-V-R-H-L-I-N-K(1,3)-Aib-T-R-Q-R-Y-NH2.C18DA-gGlu-gGlu-gGlu-gGlu-gGlu(1,2)]
[1]; [5]
  EC50: 0.1 nM
[2]
  solubility at 2 h: 3800 µg/mL
[3]; [6]
  EC50: 60.8 nM
[4]; [7]
  EC50: 0.3 nM

## CC[C@H](C)[C@H](NC(=O)[C@H](CC(C)C)NC(=O)[C@H](Cc1c[nH]cn1)NC(=O)[C@H](CCCNC(=N)N)NC(=O)[C@@H](NC(=O)[C@H](Cc1ccccc1)NC(=O)[C@H](CCC(=O)O)NC(=O)C(C)(C)NC(=O)[C@H](CCC(N)=O)NC(=O)[C@H](C)NC(=O)[C@H](CCC(N)=O)NC(=O)[C@H](CCCCN)NC(=O)[C@H](CC(=O)O)NC(=O)[C@H](CC(C)C)NC(=O)C(C)(C)NC(=O)[C@@H](NC(=O)[C@H](CO)NC(=O)[C@H](Cc1ccc(O)cc1)NC(=O)[C@H](CC(=O)O)NC(=O)[C@H](CO)NC(=O)[C@@H](NC(=O)[C@H](Cc1ccccc1)NC(=O)[C@@H](NC(=O)CNC(=O)[C@H](CCC(=O)O)NC(=O)C(C)(C)NC(=O)[C@@H](N)Cc1ccc(O)cc1)[C@@H](C)O)[C@@H](C)O)[C@@H](C)CC)C(C)C)C(=O)N[C@@H](CC(N)=O)C(=O)N[C@@H](CCCCNC(=O)[C@@H](N)CCCCNC(=O)CC[C@H](NC(=O)CC[C@H](NC(=O)CC[C@H](NC(=O)CC[C@H](NC(=O)CC[C@H](NC(=O)CC[C@H](NC(=O)CCCCCCCCCCCCCCCCC(=O)O)C(=O)O)C(=O)O)C(=O)O)C(=O)O)C(=O)O)C(=O)O)C(=O)NC(C)(C)C(=O)N[C@H](C(=O)N[C@@H](CCCNC(=N)N)C(=O)N[C@@H](CCC(N)=O)C(=O)N[C@@H](CCCNC(=N)N)C(=O)N[C@@H](Cc1ccc(O)cc1)C(N)=O)[C@@H](C)O [Compound 131, Y-Aib-E-G-T-F-T-S-D-Y-S-I-Aib-L-D-K-Q-A-Q-Aib-E-F-V-R-H-L-I-N-K(1,3)-Aib-T-R-Q-R-Y-NH2.C18DA-gGlu-gGlu-gGlu-gGlu-gGlu-gGlu-eLys(1,2)]
[1]; [5]
  EC50: 0.3 nM
[2]
  solubility at 2 h: 9000 µg/mL
[3]; [6]
  EC50: 17.5 nM
[4]; [7]
  EC50: 0.1 nM

## CC[C@H](C)[C@H](NC(=O)[C@H](CC(C)C)NC(=O)[C@H](Cc1c[nH]cn1)NC(=O)[C@H](CCCNC(=N)N)NC(=O)[C@@H](NC(=O)[C@H](Cc1ccccc1)NC(=O)[C@H](C)NC(=O)C(C)(C)NC(=O)[C@H](CCC(N)=O)NC(=O)[C@H](C)NC(=O)[C@H](CCC(N)=O)NC(=O)[C@H](CCCCN)NC(=O)[C@H](CCC(=O)O)NC(=O)[C@H](CC(C)C)NC(=O)C(C)(C)NC(=O)[C@@H](NC(=O)[C@H](CO)NC(=O)[C@H](Cc1ccc(O)cc1)NC(=O)[C@H](CC(=O)O)NC(=O)[C@H](CO)NC(=O)[C@@H](NC(=O)[C@H](Cc1ccccc1)NC(=O)[C@@H](NC(=O)CNC(=O)[C@H](CCC(=O)O)NC(=O)C(C)(C)NC(=O)[C@@H](N)Cc1ccc(O)cc1)[C@@H](C)O)[C@@H](C)O)[C@@H](C)CC)C(C)C)C(=O)N[C@@H](CC(N)=O)C(=O)N[C@@H](CCCCNC(=O)[C@@H](N)CCCCNC(=O)CC[C@H](NC(=O)CC[C@H](NC(=O)CC[C@H](NC(=O)CC[C@H](NC(=O)CC[C@H](NC(=O)CC[C@H](NC(=O)CCCCCCCCCCCCCCCCC(=O)O)C(=O)O)C(=O)O)C(=O)O)C(=O)O)C(=O)O)C(=O)O)C(=O)NC(C)(C)C(=O)N[C@H](C(=O)N[C@@H](CCCNC(=N)N)C(=O)N[C@@H](CCC(N)=O)C(=O)N[C@@H](CCCNC(=N)N)CC(=O)N[C@@H](Cc1ccc(O)cc1)C(N)=O)[C@@H](C)O [Compound 146, Y-Aib-E-G-T-F-T-S-D-Y-S-I-Aib-L-E-K-Q-A-Q-Aib-A-F-V-R-H-L-I-N-K(1,3)-Aib-T-R-Q-bhArg-Y-NH2.C18DA-gGlu-gGlu-gGlu-gGlu-gGlu-gGlu-eLys(1,2)]
[1]; [5]
  EC50: 0.2 nM
[2]
  solubility at 2 h: 5000 µg/mL
[3]; [9]
  EC50: 89.8 nM
[4]; [7]
  EC50: 1 nM

## CC[C@H](C)[C@H](NC(=O)[C@H](CC(C)C)NC(=O)[C@H](Cc1c[nH]cn1)NC(=O)[C@H](CCCNC(=N)N)NC(=O)[C@@H](NC(=O)[C@H](Cc1ccccc1)NC(=O)[C@H](C)NC(=O)[C@H](Cc1ccc(O)cc1)NC(=O)[C@H](CCC(N)=O)NC(=O)[C@H](C)NC(=O)[C@H](CCC(N)=O)NC(=O)[C@H](CCCCN)NC(=O)[C@H](CCC(=O)O)NC(=O)[C@H](CC(C)C)NC(=O)C(C)(C)NC(=O)[C@@H](NC(=O)[C@H](CO)NC(=O)[C@H](Cc1ccc(O)cc1)NC(=O)[C@H](CC(=O)O)NC(=O)[C@H](CO)NC(=O)[C@@H](NC(=O)[C@H](Cc1ccccc1)NC(=O)[C@@H](NC(=O)CNC(=O)[C@H](CCC(=O)O)NC(=O)C(C)(C)NC(=O)[C@@H](N)Cc1ccc(O)cc1)[C@@H](C)O)[C@@H](C)O)[C@@H](C)CC)C(C)C)C(=O)N[C@@H](CC(N)=O)C(=O)N[C@@H](CCCCNC(=O)[C@@H](N)CCCCNC(=O)CC[C@H](NC(=O)CC[C@H](NC(=O)CC[C@H](NC(=O)CC[C@H](NC(=O)CC[C@H](NC(=O)CC[C@H](NC(=O)CCCCCCCCCCCCCCCCC(=O)O)C(=O)O)C(=O)O)C(=O)O)C(=O)O)C(=O)O)C(=O)O)C(=O)NC(C)(C)C(=O)N[C@H](C(=O)N[C@@H](CCCNC(=N)N)C(=O)N[C@@H](CCC(N)=O)C(=O)N[C@@H](CCCNC(=N)N)C(=O)N[C@@H](Cc1ccc(O)cc1)C(N)=O)[C@@H](C)O [Compound 151, Y-Aib-E-G-T-F-T-S-D-Y-S-I-Aib-L-E-K-Q-A-Q-Y-A-F-V-R-H-L-I-N-K(1,3)-Aib-T-R-Q-R-Y-NH2.C18DA-gGlu-gGlu-gGlu-gGlu-gGlu-gGlu-eLys(1,2)]
[1]; [5]
  EC50: 0.5 nM
[1]; 100% human plasma, read-out: hGIPR 100% hP
  EC50: 5.6 nM
[2]
  solubility at 2 h: 10300 µg/mL
[3]; [9]
  EC50: 89.8 nM
[4]; [8]
  EC50: 7 nM
